Measured values taken from PubChem BioAssay (NCI).
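Briefly, cells in 96-well plates were exposed to five compound concentrations for 48 h, and endpoints were estimated by linear interpolation. TGI: total growth inhibition.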

Columns and labels:
Test in all cases: NCI-60 cell line screen, 48 h
[1] = system: LXFL 529 NSCLC
[2] = system: A498 renal
[3] = system: COLO 205 colon
[4] = system: LOX IMVI melanoma
[5] = system: SK-MEL-5 melanoma
[6] = system: HT29 colon
[7] = system: M19-MEL melanoma
[8] = system: UO-31 renal
[9] = system: CAKI-1 renal
[10] = system: U251 CNS
[11] = system: MALME-3M melanoma
[12] = system: NCI-H226 lung
[13] = system: KM12 colon
[14] = system: HCT-15 colon
[15] = system: DLD-1 colon
[16] = system: ACHN renal
[17] = system: HCC-2998 colon
[18] = system: NCI-H23 lung
[19] = system: RPMI-8226 leukemia
[20] = system: HOP-62 NSCLC
[21] = system: NCI-H522 lung
[22] = system: OVCAR-8 ovarian
[23] = system: SR leukemia
[24] = system: SF-268 CNS
[25] = system: TK-10 renal
[26] = system: SW-620 colon
[27] = system: EKVX NSCLC
[28] = system: M14 melanoma
[29] = system: MOLT-4 leukemia
[30] = system: OVCAR-3 ovarian
[31] = system: SK-OV-3 ovarian
[32] = system: A549 NSCLC
[33] = system: SF-295 CNS
[34] = system: UACC-257 melanoma
[35] = system: K-562 leukemia
[36] = system: CCRF-CEM leukemia
[37] = system: HL-60(TB) leukemia
[38] = system: NCI-H460 lung
[39] = system: SK-MEL-2 melanoma
[40] = system: HOP-92 NSCLC
[41] = system: IGROV1 ovarian
[42] = system: HCT-116 colon
[43] = system: SNB-78 CNS
[44] = system: HOP-18 NSCLC
[45] = system: SNB-19 CNS
[46] = system: KM20L2 colon
[47] = system: RXF 393 renal
[48] = system: OVCAR-4 ovarian
[49] = system: OVCAR-5 ovarian
[50] = system: SK-MEL-28 melanoma
[51] = system: SNB-75 CNS
[52] = system: UACC-62 melanoma
[53] = system: 786-0 renal
[54] = system: SN12C renal
[55] = system: DMS 273 small cell lung
[56] = system: DMS 114 small cell lung
[57] = system: SF-539 CNS

CCOC(=O)C1(c2ccccc2)CCCNCC1 (centres undefined)
TGI [1]: > 100 µM
TGI [2]: > 100 µM
TGI [3]: > 100 µM
TGI [4]: > 100 µM
TGI [5]: > 100 µM
TGI [6]: > 100 µM
TGI [7]: > 100 µM
TGI [8]: > 100 µM
TGI [9]: > 100 µM
TGI [10]: > 100 µM
TGI [11]: > 100 µM
TGI [12]: > 100 µM
TGI [13]: > 100 µM
TGI [14]: > 100 µM
TGI [15]: > 100 µM
TGI [16]: > 100 µM
TGI [17]: > 100 µM
TGI [18]: > 100 µM
TGI [19]: > 100 µM
TGI [20]: > 100 µM
TGI [21]: > 100 µM
TGI [22]: > 100 µM
TGI [23]: 88.8 µM
TGI [24]: > 100 µM
TGI [25]: > 100 µM
TGI [26]: > 100 µM
TGI [27]: > 100 µM
TGI [28]: > 100 µM
TGI [29]: > 100 µM
TGI [30]: > 100 µM
TGI [31]: > 100 µM
TGI [32]: > 100 µM
TGI [33]: > 100 µM
TGI [34]: > 100 µM
TGI [35]: > 100 µM
TGI [36]: > 100 µM
TGI [37]: > 100 µM
TGI [38]: > 100 µM
TGI [39]: > 100 µM
TGI [40]: > 100 µM
TGI [41]: > 100 µM
TGI [42]: > 100 µM
TGI [43]: > 100 µM
TGI [44]: > 100 µM
TGI [45]: > 100 µM
TGI [46]: > 100 µM
TGI [47]: > 100 µM
TGI [48]: > 100 µM
TGI [49]: > 100 µM
TGI [50]: > 100 µM
TGI [51]: > 100 µM
TGI [52]: > 100 µM
TGI [53]: > 100 µM
TGI [54]: > 100 µM
TGI [55]: > 100 µM

COC(=O)C1=C(c2cc(OC)c(OC)c(OC)c2)OC(c2ccc3c(c2)OCO3)C1 (centres undefined)
TGI [1]: 90 µM
TGI [2]: 52.2 µM
TGI [3]: 26.8 µM
TGI [4]: > 100 µM
TGI [5]: > 100 µM
TGI [6]: 97.5 µM
TGI [7]: > 100 µM
TGI [8]: > 100 µM
TGI [9]: > 100 µM
TGI [10]: > 100 µM
TGI [11]: > 100 µM
TGI [12]: > 100 µM
TGI [13]: > 100 µM
TGI [14]: > 100 µM
TGI [15]: > 100 µM
TGI [16]: > 100 µM
TGI [17]: > 100 µM
TGI [18]: 98.9 µM
TGI [56]: 45.7 µM
TGI [19]: > 100 µM
TGI [20]: > 100 µM
TGI [22]: > 100 µM
TGI [23]: 62.8 µM
TGI [24]: > 100 µM
TGI [25]: > 100 µM
TGI [26]: 67.3 µM
TGI [27]: 99.2 µM
TGI [28]: > 100 µM
TGI [29]: > 100 µM
TGI [30]: 81.7 µM
TGI [31]: > 100 µM
TGI [32]: > 100 µM
TGI [33]: > 100 µM
TGI [34]: > 100 µM
TGI [35]: > 100 µM
TGI [36]: > 100 µM
TGI [38]: > 100 µM
TGI [40]: > 100 µM
TGI [41]: 29.5 µM
TGI [42]: > 100 µM
TGI [43]: > 100 µM
TGI [44]: > 100 µM
TGI [45]: > 100 µM
TGI [46]: 58.2 µM
TGI [47]: > 100 µM
TGI [48]: > 100 µM
TGI [49]: > 100 µM
TGI [50]: > 100 µM
TGI [57]: > 100 µM
TGI [51]: > 100 µM
TGI [52]: 35.5 µM
TGI [53]: > 100 µM
TGI [54]: > 100 µM
TGI [55]: > 100 µM
